Source: US20030135065A1, “Process for the production of L-DOPA ethyl ester” (priority 2001, published 2003)

Legend:
[1] = Stability of L-DOPA ethyl ester forms; assay type: physicochemical
Source text: (§1) Great Britain Patent No. 1,364,505 and corresponding U.S. Pat. No. 3,803,120, assigned to Hoffman-La Roche, describe the synthesis of L-DOPA ethyl ester hydrochloride salt and free base. This compound is used as an intermediate in the synthesis of other compounds and is not characterized in the patent specification. […] This material cannot be used for pharmaceutical compositions. Likewise, the L-DOPA ethyl ester free base as prepared in these two patents is impure and not stable and thus also is not suitable for pharmaceutical compositions. At best it can be used as a synthetic intermediate for further chemical synthesis as described in the cited patents.
(§2) L-DOPA ethyl ester as free base obtained by this process is stable, non-hygroscopic, and crystalline. The LDEE free base has a particle size from 5 to 300 micron and an average particle size of 80 micron.

[2] = Hygroscopicity of L-DOPA ethyl ester forms; assay type: physicochemical
Source text: as §1, §2

[3] = Particle size of LDEE free base; assay type: physicochemical; details: free base obtained by this process
Source text: as §2

[4] = composition produced according to the Milman process (U.S. Pat. No. 5,354,885); 6 months at 40° C.; cited from earlier work
[5] = material synthesized by the methods of GB 1,364,505 / U.S. Pat. No. 3,803,120
[6] = free base obtained by this process

stability [1, 5] | hygroscopicity [2, 5] | stability [1, 6] | average particle size [3] | hygroscopicity [2, 6] | Structure (SMILES) | L-DOPA ethyl ester remaining after incubation [4]
not stable | hygroscopic |  |  |  | CCOC(=O)[C@@H](N)Cc1ccc(O)c(O)c1.Cl [L-DOPA ethyl ester hydrochloride salt, L-DOPA ethyl ester hydrochloride, reference compound] | 
not stable |  | stable | 80 micron | non-hygroscopic | CCOC(=O)[C@@H](N)Cc1ccc(O)c(O)c1 [L-DOPA ethyl ester] | at least 97 % by weight
